Experimental data reported in patent US20260226068A1, “IMIDAZOTRIAZINE IL-17A MODULATORS AND USES THEREOF” (DICE ALPHA, INC., priority 2023, published 2026).

Experiments:
IL-17A/A = target: T1, IL-17A/A (Homo sapiens, UniProt Q16552); assay: IL-17A/A HEK-Blue cell assay (SEAP reporter); format: cell-based; conditions: HEK-Blue IL-17A reporter cells, IL17A/A 5 ng/mL, 20 hours, SEAP read at A630; read-out: HEK-Blue IL17AA (IC50 for IL-17A/A inhibition)
T1 construct: purchased Genscript Z03228
T1 sequence (Q16552 24-155): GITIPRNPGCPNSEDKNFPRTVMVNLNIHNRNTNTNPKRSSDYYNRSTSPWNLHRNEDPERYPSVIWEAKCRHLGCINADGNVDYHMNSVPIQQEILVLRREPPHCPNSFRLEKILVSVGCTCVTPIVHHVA
Experimental: (§1) The HEK-Blue IL-17A reporter cell line (Fisher #NC 1408637) was used for cell-based IL-17A/A inhibition assays. Cells were grown and prepared for assays according to the manufacturer's instructions. This cell line consists of HEK 293 cells that were designed to expressed IL-17RA, IL-17RC, and the Act1 adapter molecule, the combination of which, when stimulated by IL-17A/A or IL17A/F activates a […] promoter and drives expression of the recombinant Secreted Alkaline Phosphatase (SEAP) gene. Media from the cells is then added to a development reagent (Quanti-Blue Substrate, Fisher #NC971 1613), and read at A630.
(§2) Compounds were dispensed in DMSO to an empty clear 384-well tissue culture plate in a titration ranging from 10 μM to 27 pM, with DMSO added to every well to a final concentration of […]. Cells were then added to the plate (45 μL/well at a concentration of 280,000 cells/mL). IL17A/A (Genscript #Z03228) or IL17A/F (R&D Systems) was added to the plate to a final concentration of 5 ng/mL and a final well volume of 50 μL. The cells, compound, and IL-17A/A or IL17A/F were then incubated for 20 hours before media was removed for SEAP analysis. The resulting inhibition curve was then analyzed using Dotmatics' integrated 4-parameter fit screening protocol to generate IC50 values.
(§3) Table 2 includes IC50 values for IL-17A/A and IL-17A/F inhibition of selected compounds; with compounds having a IC50 of A<100 nM; B 100-1000 nM; and C>1000 nM.

IL-17A/F = target: T2, IL-17A/F (Homo sapiens, UniProt Q16552+Q96PD4); assay: IL-17A/F HEK-Blue cell assay (SEAP reporter); format: cell-based; conditions: HEK-Blue IL-17A reporter cells, IL17A/F 5 ng/mL, 20 hours, SEAP read at A630; read-out: HEK-Blue IL17AF (IC50 for IL-17A/F inhibition)
T2 construct: purchased R&D Systems
T2 sequence (Q16552 24-155): T1 sequence (Q16552 24-155)
T2 sequence (Q96PD4 31-163): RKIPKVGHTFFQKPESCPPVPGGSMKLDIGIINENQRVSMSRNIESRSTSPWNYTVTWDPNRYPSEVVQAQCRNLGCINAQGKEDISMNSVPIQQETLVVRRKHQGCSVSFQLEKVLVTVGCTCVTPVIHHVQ
Experimental: as §1, §2, §3

| SMILES | IC50 (IL-17A/A) [nM] | IC50 (IL-17A/F) [nM] |
| --- | --- | --- |
| C[C@H]1CC[C@H]([C@H](NC(=O)C2(F)CC2)c2cn3nc(CC4C[C@@H](C(F)(F)F)CNC4=O)c(N4CCOCC4)nc3n2)CC1 (single isomer, unassigned) [Compound 118] | 100 to 1000 | > 1000 |
| C[C@H]1CC[C@H]([C@H](NC(=O)C2(F)CC2)c2cn3nc(CC4C[C@@H](C(F)(F)F)CNC4=O)c(N4CCOCC4)nc3n2)CC1 (single isomer, unassigned) [Compound 120] | 100 to 1000 | > 1000 |
| CCn1nccc1C(=O)N[C@H](c1cn2nc(CC3C[C@@H](C(F)(F)F)CNC3=O)c(N3CCO[C@H](C)C3)nc2n1)[C@@H]1CCCC(F)(F)C1 (single isomer, unassigned) [Compound 124] | < 100 | 100 to 1000 |
| O=C(N[C@H](c1cn2nc(C[C@H]3C[C@@H](C(F)(F)F)CNC3=O)c(C3CCCOC3)nc2n1)[C@H]1CCCC(F)(F)C1)c1nonc1C1CC1 (single isomer, unassigned) [Compound 125] | < 100 | > 1000 |
| O=C(N[C@H](c1cn2nc(C[C@H]3C[C@@H](C(F)(F)F)CNC3=O)c(C3CCCOC3)nc2n1)[C@H]1CCCC(F)(F)C1)c1nonc1C1CC1 (single isomer, unassigned) [Compound 126] | < 100 | 100 to 1000 |
| CC(C)n1nccc1C(=O)N[C@H](c1cn2nc(CC3C[C@@H](C(F)(F)F)CNC3=O)c(N3CC4CC(C3)O4)nc2n1)[C@H]1CCCC(F)(F)C1 (single isomer, unassigned) [Compound 128] | < 100 | 100 to 1000 |
| CC(C)n1nccc1C(=O)N[C@H](c1cn2nc(CC3C[C@@H](C(F)(F)F)CNC3=O)c(N3CC4CC(C3)O4)nc2n1)[C@@H]1CCCC(F)(F)C1 (single isomer, unassigned) [Compound 129] | < 100 | 100 to 1000 |
| CC(C)n1nccc1C(=O)N[C@H](c1cn2nc(CC3C[C@@H](C(F)(F)F)CNC3=O)c(N3CC4CC(C3)O4)nc2n1)[C@H]1CCCC(F)(F)C1 (single isomer, unassigned) [Compound 130] | < 100 | > 1000 |
| CC(C)n1nccc1C(=O)N[C@H](c1cn2nc(CC3C[C@@H](C(F)(F)F)CNC3=O)c(N3CC4CC(C3)O4)nc2n1)[C@@H]1CCCC(F)(F)C1 (single isomer, unassigned) [Compound 131] | < 100 | > 1000 |
| CC(C)n1nccc1C(=O)N[C@H](c1cn2nc(C[C@H]3C[C@@H](C(F)(F)F)CNC3=O)c(C3CCOC3)nc2n1)C1CCC(F)(F)CC1 (single isomer, unassigned) [Compound 132] | < 100 | 100 to 1000 |

Second part, the compound after the results:

| IC50 (IL-17A/A) [nM] | IC50 (IL-17A/F) [nM] | SMILES |
| --- | --- | --- |
| < 100 | 100 to 1000 | CCn1nccc1C(=O)N[C@H](c1cn2nc(CC3C[C@@H](C(F)(F)F)CNC3=O)c(N3CCOCC3)nc2n1)C(C1CC1)C1CC1 (single isomer, unassigned) [Compound 111] |
| < 100 | 100 to 1000 | CCn1nccc1C(=O)N[C@H](c1cn2nc(CC3C[C@@H](C(F)(F)F)CNC3=O)c(N3CCOCC3)nc2n1)C(C1CC1)C1CC1 (single isomer, unassigned) [Compound 112] |
| < 100 | 100 to 1000 | O=C(N[C@H](c1cn2nc(CC3C[C@@H](C(F)(F)F)CNC3=O)c(N3CCOCC3)nc2n1)C1CCC(F)(F)CC1)c1conc1C1CC1(F)F (single isomer, unassigned) [Compound 113] |
| < 100 | > 1000 | O=C(N[C@H](c1cn2nc(CC3C[C@@H](C(F)(F)F)CNC3=O)c(N3CCOCC3)nc2n1)C1CCC(F)(F)CC1)c1conc1C1CC1(F)F (single isomer, unassigned) [Compound 114] |
| < 100 | > 1000 | O=C(N[C@H](c1cn2nc(CC3C[C@@H](C(F)(F)F)CNC3=O)c(N3CCOCC3)nc2n1)C1CCC(F)(F)CC1)c1conc1C1CC1(F)F (single isomer, unassigned) [Compound 115] |
| < 100 | > 1000 | O=C(N[C@H](c1cn2nc(CC3C[C@@H](C(F)(F)F)CNC3=O)c(N3CCOCC3)nc2n1)C1CCC(F)(F)CC1)c1conc1C1CC1(F)F (single isomer, unassigned) [Compound 116] |
